What was measured:
[1] = system: bFGF induced corneal vascularisation; experiment: bFGF induced corneal vascularisation (pellet in corneal pocket), area of neovascularisation; type: in vivo, C57BL/6 mice
[2] = system: choroidal neovascularisation; experiment: Laser-induced choroidal neovascularisation rat model, fluorescein angiography leakage score; type: in vivo, Brown Norway pigmented rats; design: key to Mean score of fluorescein leakage: 0 = no leakage, 1 = slight, 2 = moderate, 3 = strongly stained; conditions: Per os 0.5 mg/kg 1×/day
Description: Forty-eight (48) Brown Norway pigmented rats were divided into six (6) groups of eight (8) animals. Choroidal neovascularization was induced using a 532 nm argon laser photocoagulator (six (6) 75 μm-sized spots at 150 mW for 0.1 sec duration) in the right eyes on Day 0. The test item was administered three times a day by instillation or twice a day by oral administration from Day 0 (DO) just after ChNV induction to Day 21 (last day of the study). Control item (vehicle) was instilled three times a day and the reference item (Dexamethasone in olive oil) was administered by daily oral administration from the Day 0 just after induction of neovascularization to Day 21. Fundus neovessels were evaluated in the right eyes on Days 14 and 21 using Heidelberg's Retinal Angiograph (HRA). Lesion size was determined on choroid flatmounts labelled with Isolectin-B4 at the end of the in vivo period.
On Day 0, animals were anesthetized by an intramuscular injection of a mix of xylazine (5 mg/kg) and ketamine (25 mg/kg). Pupils from the right eyes were dilated by instillation of one drop of 0.5% tropicamide. Then, six (6) choroidal burns (75 μm spot size) were done through a slit-lamp, with a contact lens, around the optic disc, between the main vessel branches using an argon laser photocoagulator (532 nm; 150 mW; 0.1 sec duration). Production of a bubble at the time of laser treatment confirmed the rupture of Bruch's membrane.
Test, control, or reference items were administered topically by instillation (10 μL each) or by oral route (1 mL/kg) from Day 0 (just after the induction) to Day 21 (end of the study). Test and control items were administered three times a day (for instillation) and two times a day (for oral administration). Reference item was administered once a day by oral route.
Fluorescein angiography was performed on Days 14 and 21 using an HRA (Heidelberg's Retinal Angiograph). After anaesthesia (same mix used for ChNV induction) and pupillary dilation, 250 μL/100 g (body weight) of a 10% sodium fluorescein was injected subcutaneously using a 26-G insulin syringe, and fluorescein photos were recorded 10 minutes after dye injection.
The leakage of fluorescein on the angiograms were evaluated by two examiners in a masked fashion and graded as follows: • Score 0, no leakage; • Score 1, slightly stained; • Score 2, moderately stained; • Score 3, strongly stained.
Statistical analysis, using Mann-Whitney U test or appropriate statistical model, were performed on the scoring of lesions visualized by HRA from each animal and on the scoring of the flat mounted preparations.
The grading of fluorescein angiographies (FA) was based on the fluorescence intensity for each lesion. For each treatment group, results were expressed as the group mean score per time-point. Table 1 summarises the evaluation of FA recorded at 10 min on Days 14 and 21 (n=8 animals per group, right eyes). A statistical analysis was performed on the median of the individual intensity scores, using a Kruskall-Wallis test followed by a Mann & Whitney U multiple comparison test, which was used to compare each test, control or reference group.

[3] = Animal body weight in the ChNV rat study; type: in vivo, Brown Norway pigmented rats; conditions: during the study, oral 0.5 mg/kg 1×/day
Description: The body weight of all animals was recorded before the start of the study, then once every week.
Animal body weights were recorded before induction and treatment (baseline) and then once a week. Animal body weights were within the normal range at the baseline: 166-202 g (min−max, n=48). On Day 21, no significant difference between test and control items was observed. […] This loss is an expected adverse effect of orally dosed corticosteroid.

[4] = system: VEGF induced corneal vascularisation; experiment: VEGF induced corneal vascularisation (pellet in corneal pocket), area of neovascularisation; type: in vivo, C57BL/6 mice; design: Area of vasc.: unit not given beside the values
Description: The area of the neovascularisation can be measured using the formula: Area=0.2·VL·CH·π wherein vessel length (VL) and continuous circumferential zone (in clock hours=CH) are measured as defined in FIG. 1. Treatment with Laquinimod of VEGF Induced Corneal Vascularisation
Hydron pellets for induction of vascularisation were prepared from stimulant (VEGF) and binding agent (sucralfate).
53 CR female C57BL/6 mice aged 6 to 8 weeks were prepared for surgery by anesthetising with 90 mg/kg of pentobarbital, ip. Corneal vascularisation was induced by placement of a pellet in a corneal pocket cut in one eye. Signs for ocular irritation or infection were carefully monitored.
[…] Vascularisation was measured on day 8.

[5] = system: Human retinal microvascular endothelial cells (HRMECs); experiment: LPS-activated microglia-induced HRMEC tube formation (co-culture); type: cell-based
Description: The following experimental groups were included in the study: • Group 1: […] Sulforaphane (10 μM, positive control, anti-angiogenic effects) • Group 3: Aflibercept (“Eylea” 40 μg/ml, positive control, partial anti-angiogenic effects) • Group 4: […] Human retinal microvascular endothelial cells (HRMECs) were purchased from Neuromics (Cat #HEC09, Lot #2872) and cultured according to manufacturer's instructions in Endo-Growth media (Cat #EKG001, Lot #EKG0011902269) supplemented with Endothelial Growth Factor (Cat #EKG001, Lot #EGK00125) on AlphaBiocoat coated T25 flasks at 37° C. 5% CO2. […] Human microglia were seeded onto PLL coated cell culture inserts (Sarstedt, Cat #83.3932.040) at 103 000 cells/cm^2. […] The method for co-cultures of microglia and HRMECs was modified from protocol described by Ding et al. 2018 (Ding X, Gu R, Zhang M, Ren H, Shu Q, Xu G, Wu H. Microglia enhanced the angiogenesis, migration and proliferation of co-cultured RMECs. […] PMID: 30223824; PMCID: PMC6142340) and Ji Cho et al. 2019 (Ji Cho M, Yoon […], Park J, Lee J, Park J G, Cho Y L, Hun Kim J, Jang H, Park Y J, Lee S H, Min J K. Oxidative stress-mediated TXNIP loss causes RPE dysfunction. […] PMID: 31615975; PMCID: PMC6802648). Microglia was activated with LPS (100 ng/ml) in microglia complete growth media without FBS with simultaneous treatment of freshly prepared study compounds, Eylea and vehicle for 24 hours. HRMECs were incubated in basal Endo-Growth media for 24 hours before co-culturing. […] Media in microglia inserts containing LPS was replaced to corresponding freshly prepared study compounds, aflibercept and sulforaphane in basal Endo-Growth media. […] 5% CO2, stained with calcein-AM (5 μM) for 30 min and imaged using a fluorescence microscope (Leica Thunder 3D Tissue Imager, Leica Microsystems). Images were analyzed using the AngioTool software (Zudaire E, Gambardella L, Kurcz […] Computational Tool for Quantitative Analysis of Vascular Networks. PLOS ONE 6(11): e27385. https://doi.org/10.1371/journal.pone.0027385) for ImageJ (NIH public domain). Total tube area, tube length, density, lacunarity, and branching index (number of junctions and endpoints) were quantified. Images were analyzed using AngioTool software (NIH, Bethesda, MD; available in the public domain) for the following readouts: average vessels length, total vessels length, vessel area, vessels percentage area, total number of junctions, density of junctions, total number of endpoints, and mean lacunarity. […] Raw data for each of the readouts was plotted and analyzed by ordinary one-way ANOVA with Dunnett's multiple comparisons post-hoc test. […] Effect size data were analyzed by non-parametric Kruskal-Wallis test, with Dunn's multiple comparisons post-hoc test.

[6] = system: metastatic chemo naïve prostate cancer (mCRPC); conditions: randomized placebo controlled Phase 2 and 3 studies; cited from earlier work
[7] = system: Human retinal microvascular endothelial cells (HRMECs); experiment: Tube formation assay, combination with aflibercept (contemplated); type: cell-based; conditions: 0.01 and 0.1 μM combined with Aflibercept (30 nM)
Text: Microglia, especially activated microglia play important roles in angiogenesis and maintenance of vascular function haemostasis in the retinal microvasculature (Ding et al 2018). It is contemplated that a co-culture of human retinal microvasculature endothelial cells (HRMEC's) and human microglia from brain can be used to assess the effects of a compound of the disclosure, such as laquinimod, tasquinimod, ABR-215174 or ABR-215691, on neovascularization. A method such as the one outlined below may be used.
This study may be carried out substantially as outlined in Example 3.
Tube formation assay is performed using 24-well plate wells coated with Matrigel or in 96-wells as described Ding et al. 2018 (Ding et al. BMC Ophthalmology (2018) 18:249): A 96-well plate is coated with 50 μL/well Matrigel at 37° C. for 30 min. After co-culturing with microglia for 24 h, HRMECs are seeded on the Matrigel at 1.5×10^4 cells/well in 100 μL medium. After a period of time, for example 4 h, tube formation is observed and photographed with a microscope (Leica Microsystems). Images are analysed using the Angiotool plugin (Zudaire et al., 2011, PLoS one, 6, 11, e27385) for ImageJ (NIH public domain). Total tube area, tube length, density, lacunarity, and branching index (number of junctions and endpoints) are quantified.

[8] = group 2: 5 mg/kg po qd ×5, measured day 6
[9] = group 2: 5 mg/kg ip qd ×7, measured day 8

CCN(CC)CCNC(=O)c1c(C)[nH]c(/C=C2\C(=O)Nc3ccc(F)cc32)c1C [Sutent, reference compound]
Inhibition of corneal vascularisation induced by bFGF ([1]; 40 mg/kg): 80%
Area of vasc. [1, 8]: 0.72 ± 0.08
Area percent of positive control [1, 8]: 20%

C[C@@H]1C[C@H]2[C@@H]3CCC4=CC(=O)C=C[C@]4(C)[C@@]3(F)[C@@H](O)C[C@]2(C)[C@@]1(O)C(=O)CO [Dexamethasone, reference compound]
% of reduction vs respective vehicle ([2]; Day 14): 71%
Mean score of fluorescein leakage ([2]; Day 14): 0.7
% of reduction vs respective vehicle ([2]; Day 21): 73%
Mean score of fluorescein leakage ([2]; Day 21): 0.8
body weight loss [3]: 21%

Avastin: Bevacizumab (Avastin) is an IgG1-based antibody which binds VEGF-A; positive control
Inhibition of corneal vascularisation induced by VEGF ([4]; 5 mg/kg (reference)): 100%
Area of vasc. [4, 9]: 0.00 ± 0.00
Area percent of positive control [4, 9]: 0%

C[S+]([O-])CCCCN=C=S (stereo not shown) [sulforaphane, reference compound]
Normalized effect size on average vessel length ([5]; 10 μM, positive control, set to 100% by normalisation (vehicle 0%)): 100%

Eylea: recombinant protein aflibercept (Eylea) with affinity for VEGF-A, VEGF-B, and PGF
Normalized effect size on average vessel length ([5]; 40 μg/ml, normalised to vehicle 0%, sulforaphane 100%): 18%

COc1cccc2c1c(O)c(C(=O)N(C)c1ccc(C(F)(F)F)cc1)c(=O)n2C [tasquinimod]
Disease progression (primary endpoint) [6]: significantly delayed

Cn1c(=O)c(C(=O)Nc2ccccc2)c(O)c2c(Cl)cccc21 [ABR-215174, 5-chloro-4-hydroxy-1-methyl-2-oxo-1,2-dihydroquinoline-3-carboxylic acid phenylamide]
effect on tube formation of combination compared to each compound used as monotherapy [7]: clear additive effect
Normalized effect size on average vessel length ([5]; 0.1 μM, normalised to vehicle 0%, sulforaphane 100%): 88.2%

Reference: patent publication US12208091B2, “Compounds for treatment of eye diseases associated with excessive vascularisation” (Active Biotech AB, priority 2019, dated 2025)
